According to patent US20240228504A1, “SUBSTITUTED TRICYCLIC AMIDES, ANALOGUES THEREOF, AND METHODS USING SAME” (Arbutus Biopharma Corporation, priority 2020, published 2024):
pEC50: −log10 of the molar value.

test system: HBV rcDNA in HepDE19 cells; test: HepDE19 assay with bDNA quantitation of HBV rcDNA; assay type: cell-based, hepatitis B virus; settings: HepDE19 assay, inhibition of rcDNA formation, bDNA quantitation; read-out: DE-19bDNA EC50

Compound	pEC50
CN1Cc2[nH]c(=O)c3cc(F)ccc3c2C(N(C)C(=O)c2cc3ccccc3[nH]2)C1 (single isomer, unassigned) [Compound 61, N-(8-Fluoro-3-methyl-6-oxo-1,2,3,4,5,6-hexahydrobenzo[c][1,7]naphthyridin-1-yl)-N-methyl-1H-indole-2-carboxamide]	5.64
CN(C(=O)c1cc2ccc(C(F)F)cn2c1)C1CNCc2[nH]c(=O)c3cc(F)c(F)cc3c21 (single isomer, unassigned) [Compound 388, N-(8,9-Difluoro-6-oxo-1,2,3,4,5,6-hexahydrobenzo[c][1,7]naphthyridin-1-yl)-6-(difluoromethyl)-N-methylindolizine-2-carboxamide]	6.96
CN(C(=O)c1cc2c(Cl)cc(F)cc2[nH]1)C1COCc2[nH]c(=O)c3cc(F)ccc3c21 (single isomer, unassigned) [Compound 439, 4-Chloro-6-fluoro-N-(8-fluoro-6-oxo-1,4,5,6-tetrahydro-2H-pyrano[3,4-c]isoquinolin-1-yl)-N-methyl-1H-indole-2-carboxamide]	7.70
Cc1cccc2[nH]c(C(=O)N(C)C3CNCc4[nH]c(=O)c5cc(F)c(F)cc5c43)cc12 (single isomer, unassigned) [Compound 457, N-(8,9-difluoro-6-oxo-1,2,3,4,5,6-hexahydrobenzo[c][1,7]naphthyridin-1-yl)-N,4-dimethyl-1H-indole-2-carboxamide]	8.00
CN(C(=O)c1cc2cc(F)c(F)cc2[nH]1)C1COCc2nc(NCCO)c3cc(F)c(F)cc3c21 (single isomer, unassigned) [Compound 336, N-(8,9-Difluoro-6-((2-hydroxyethyl)amino)-1,4-dihydro-2H-pyrano[3,4-c]isoquinolin-1-yl)-5,6-difluoro-N-methyl-1H-indole-2-carboxamide]	8.00
CN(C(=O)c1cc2ccc(F)cn2c1)C1CNCc2[nH]c(=O)c3cc(F)c(F)cc3c21 (single isomer, unassigned) [Compound 223, N-(8,9-Difluoro-6-oxo-1,2,3,4,5,6-hexahydrobenzo[c][1,7]naphthyridin-1-yl)-6-fluoro-N-methylindolizine-2-carboxamide]	7.52
CN(C(=O)c1cc2sccc2[nH]1)C1COCc2[nH]c(=O)c3cc(F)ccc3c21 (single isomer, unassigned) [Compound 381, N-(8-Fluoro-6-oxo-1,4,5,6-tetrahydro-2H-pyrano[3,4-c]isoquinolin-1-yl)-N-methyl-4H-thieno[3,2-b]pyrrole-5-carboxamide]	7.40
CC(=O)N1Cc2[nH]c(=O)c3cc(F)c(F)cc3c2C(N(C)C(=O)c2cc3ccccc3[nH]2)C1 (single isomer, unassigned) [Compound 82, N-(3-Acetyl-8,9-difluoro-6-oxo-1,2,3,4,5,6-hexahydrobenzo[c][1,7]naphthyridin-1-yl)-N-methyl-1H-indole-2-carboxamide]	5.46
CN(C(=O)c1cc(F)c(Br)c(F)c1)C1COCc2[nH]c(=O)c3cc(F)ccc3c21 (single isomer, unassigned) [Compound 167, 4-Bromo-3,5-difluoro-N-(8-fluoro-6-oxo-2,4,5,6-tetrahydro-1H-pyrano[3,4-c]isoquinolin-1-yl)-N-methylbenzamide]	8.00
CN(C(=O)c1cc(F)c(C(F)F)c(F)c1)C1CNCc2[nH]c(=O)c3cc(F)ccc3c21 (single isomer, unassigned) [Compound 185, 4-(Difluoromethyl)-3,5-difluoro-N-(8-fluoro-6-oxo-1,2,3,4,5,6-hexahydrobenzo[c][1,7]naphthyridin-1-yl)-N-methylbenzamide]	4.62
CN(C(=O)c1cc2ccccc2[nH]1)C1CNCc2[nH]c(=O)c3cc(F)c(F)cc3c21 (single isomer, unassigned) [Compound 55, N-(8,9-Difluoro-6-oxo-1,2,3,4,5,6-hexahydrobenzo[c][1,7]naphthyridin-1-yl)-N-methyl-1H-indole-2-carboxamide]	8.00
CN(C(=O)c1cnc(C(F)(F)F)c(F)c1)C1COCc2[nH]c(=O)c3cc(F)ccc3c21 (single isomer, unassigned) [Compound 414, 5-Fluoro-N-(8-fluoro-6-oxo-1,4,5,6-tetrahydro-2H-pyrano[3,4-c]isoquinolin-1-yl)-N-methyl-6-(trifluoromethyl)nicotinamide]	6.77

same assay, conditions: Hepatitis B virus, HepDE19, HepDE19 assay, inhibition of rcDNA formation, bDNA quantitation; read-out: DE-19bDNA EC50

Compound	pEC50
CCn1nc(Cl)c2cc(C(=O)N(C)[C@@H]3COCc4[nH]c(=O)c5cc(F)c(F)cc5c43)ccc21 [Compound 416, (S)-3-Chloro-N-(8,9-difluoro-6-oxo-1,4,5,6-tetrahydro-2H-pyrano[3,4-c]isoquinolin-1-yl)-1-ethyl-N-methyl-1H-indazole-5-carboxamide]	7.10
CN(C(=O)c1cc(-c2ccc(F)cc2)n[nH]1)[C@@H]1COCc2[nH]c(=O)c3cc(F)c(F)cc3c21 [Compound 126, (S)-N-(8,9-Difluoro-6-oxo-1,4,5,6-tetrahydro-2H-pyrano[3,4-c]isoquinolin-1-yl)-3-(4-fluorophenyl)-N-methyl-1H-pyrazole-5-carboxamide]	4.68
CN(C(=O)C(O)(c1ccccc1)c1ccccc1)[C@@H]1COCc2[nH]c(=O)c3cc(F)c(F)cc3c21 [Compound 229, (S)-N-(8,9-Difluoro-6-oxo-1,4,5,6-tetrahydro-2H-pyrano[3,4-c]isoquinolin-1-yl)-2-hydroxy-N-methyl-2,2-diphenylacetamide]	5.08
CN(C(=O)[C@@H]1Cc2ccccc2N1)C1COCc2[nH]c(=O)c3cc(F)ccc3c21 (single isomer, unassigned) [Compound 4]	6.89
Cc1cc(F)cc2[nH]c(C(=O)N(C)[C@@H]3CCCc4[nH]c(=O)c5cc(F)ccc5c43)cc12 [Compound 492, (R)-6-fluoro-N-(8-fluoro-6-oxo-1,2,3,4,5,6-hexahydrophenanthridin-1-y1)-N,4-dimethyl-1H-indole-2-carboxamide]	7.52
CN(C(=O)c1ccc(C#N)c(F)c1)[C@@H]1COCc2[nH]c(=O)c3cc(F)c(F)cc3c21 [Compound 100, (S)-4-Cyano-N-(8,9-difluoro-6-oxo-1,4,5,6-tetrahydro-2H-pyrano[3,4-c]isoquinolin-1-yl)-3-fluoro-N-methylbenzamide]	7.40
C=C(C(=O)N(C)[C@@H]1COCc2[nH]c(=O)c3cc(F)c(F)cc3c21)c1ccccc1 [Compound 189, (S)-N-(8,9-Difluoro-6-oxo-1,4,5,6-tetrahydro-2H-pyrano[3,4-c]isoquinolin-1-yl)-N-methyl-2-phenylacrylamide]	5.36
O=C(N[C@@H]1COCc2[nH]c(=O)c3cc(F)c(F)cc3c21)c1cc2ccccn2c1 [Compound 148, (S)-N-(8,9-Difluoro-6-oxo-1,4,5,6-tetrahydro-2H-pyrano[3,4-c]isoquinolin-1-yl)indolizine-2-carboxamide]	6.12
CN(C(=O)c1cc(Br)c[nH]1)[C@@H]1COCc2[nH]c(=O)c3cc(F)c(F)cc3c21 [Compound 198, (S)-4-Bromo-N-(8,9-difluoro-6-oxo-1,4,5,6-tetrahydro-2H-pyrano[3,4-c]isoquinolin-1-yl)-N-methyl-1H-pyrrole-2-carboxamide]	6.66
CN(C(=O)C1(O)CCCCC1)[C@@H]1COCc2[nH]c(=O)c3cc(F)c(F)cc3c21 [Compound 211, (S)-N-(8,9-Difluoro-6-oxo-1,4,5,6-tetrahydro-2H-pyrano[3,4-c]isoquinolin-1-yl)-1-hydroxy-N-methylcyclohexane-1-carboxamide]	5.12
CN(C(=O)c1cc2occc2[nH]1)[C@@H]1COCc2[nH]c(=O)c3cc(F)c(F)cc3c21 [Compound 314, (S)-N-(8,9-Difluoro-6-oxo-1,4,5,6-tetrahydro-2H-pyrano[3,4-c]isoquinolin-1-yl)-N-methyl-4H-furo[3,2-b]pyrrole-5-carboxamide]	6.82
CN(C(=O)c1c[nH]c(=O)c(Br)c1)[C@@H]1COCc2[nH]c(=O)c3cc(F)c(F)cc3c21 [Compound 205, (S)-5-Bromo-N-(8,9-difluoro-6-oxo-1,4,5,6-tetrahydro-2H-pyrano[3,4-c]isoquinolin-1-yl)-N-methyl-6-oxo-1,6-dihydropyridine-3-carboxamide]	4.80
CN(C(=O)c1ccc2cn[nH]c2c1)[C@@H]1COCc2[nH]c(=O)c3cc(F)c(F)cc3c21 [Compound 450, (S)-N-(8,9-Difluoro-6-oxo-1,4,5,6-tetrahydro-2H-pyrano[3,4-c]isoquinolin-1-yl)-N-methyl-1H-indazole-6-carboxamide]	6.96
CN(C(=O)c1ccc2ccccn12)[C@@H]1COCc2[nH]c(=O)c3cc(F)c(F)cc3c21 [Compound 248, (S)-N-(8,9-Difluoro-6-oxo-1,4,5,6-tetrahydro-2H-pyrano[3,4-c]isoquinolin-1-yl)-N-methylindolizine-3-carboxamide]	5.27
COc1c2cc(C(=O)N(C)[C@@H]3COCc4[nH]c(=O)c5cc(F)c(F)cc5c43)ccc2nn1C(F)F [Compound 368, (S)-N-(8,9-Difluoro-6-oxo-1,4,5,6-tetrahydro-2H-pyrano[3,4-c]isoquinolin-1-yl)-2-(difluoromethyl)-3-methoxy-N-methyl-2H-indazole-5-carboxamide]	5.47
CN(C(=O)c1cc2cc(F)c(C(F)F)cc2[nH]1)[C@@H]1COC(O)c2[nH]c(=O)c3cc(F)c(F)cc3c21 (stereo partly drawn) [Compound 488, N-((1S)-8,9-Difluoro-4-hydroxy-6-oxo-1,4,5,6-tetrahydro-2H-pyrano[3,4-c]isoquinolin-1-yl)-6-(difluoromethyl)-5-fluoro-N-methyl-1H-indole-2-carboxamide]	8.00
CN(C(=O)c1cc2ccc(F)cn2c1)[C@@H]1COCc2[nH]c(=O)c3cc(F)c(F)cc3c21 [Compound 224, (S)-N-(8,9-Difluoro-6-oxo-1,4,5,6-tetrahydro-2H-pyrano[3,4-c]isoquinolin-1-yl)-6-fluoro-N-methylindolizine-2-carboxamide]	8.00
CN(C(=O)c1cc2nc(F)ccc2[nH]1)[C@@H]1COCc2[nH]c(=O)c3cc(F)c(F)cc3c21 [Compound 232, (S)-N-(8,9-Difluoro-6-oxo-1,4,5,6-tetrahydro-2H-pyrano[3,4-c]isoquinolin-1-yl)-5-fluoro-N-methyl-1H-pyrrolo[3,2-b]pyridine-2-carboxamide]	7.15
